Test results: patent publication EP0103895A2, “Novel hydroxylamine derivatives, production and use thereof” (MEIJI SEIKA KABUSHIKI KAISHA, priority 1982, dated 1984)
Values joined by “and” are separate entries in the source; they are usually repeats but may differ in a detail not shown here. Identical values can stand only once. Like-named read-outs stand apart in the source and are kept apart here.

Columns and labels:
[1] = test system: fowl roundworm (Ascaridia galli); test: Anthelmintic test in chickens artificially infected with fowl roundworm, single oral dose in gelatin capsule, worm bodies counted within 48 hours (Test Examples A1, B1, C1, D1); assay type: in vivo; settings: Ascaridia galli, po, 48 h, chicken, chickens No.1-3, read-out: Anthelmintic effect after 48 hours; for inhibition in vivo at 15 mg/kg: 15 mg/Kg oral in gelatin capsule; for inhibition in vivo at 30 mg/kg: 30 mg/Kg oral in gelatin capsule
Method in brief: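 Groups of three chickens with confirmed Ascaridia galli infection given a single oral dose in gelatin capsule (10 and 20 mg/kg in A1 and B1; 30 and 50 mg/kg in C1; 15 and 30 mg/kg in D1). Worms expelled over 48 h and those remaining in the gut at necropsy counted to give anthelmintic percentage.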

[2] = test system: Diphyllobothrium erinacei; test: Test of anthelmintic effect against Diphyllobothrium erinacei (tapeworm) in experimentally infected cats (Test Examples A5, B5, C5, D5); settings: for Number of worms remaining in enteron: 50 mg/Kg x 5; for anthelmintic effect: cats, 5 continuous administrations of 50 mg/Kg
[3] = test system: fowl roundworm (As. galli); test: Anthelmintic test in chickens artificially infected with fowl roundworm, compound added to feed, E.P.G. and worm count up to 21st day (Test Examples A2, B2, C2, D2); assay type: in vivo, Ascaridia galli; settings: chicken; for inhibition in vivo at 25 ppm / inhibition in vivo at 50 ppm: Ascaridia galli, feed or water, 504 h, read-out: Anthelmintic effect
[4] = test system: Liver fluke; Fasciola hepatica (F. hepatica); test: Test of anthelmintic effect against rat infected experimentally with liver fluke (Test Examples A11, B11, C11, D11); assay type: in vivo; settings: for anthelmintic effect: rats, five administrations in a dose of 50 mg/Kg each
Text: Twenty-eight (28) rats were employed in fourteen groups each of two rats, each rat being infected with 5 metacercariae of Liver fluke; Fasciola he^patica (F.. hepatica) and confirmed to have worm eggs on the 75th day after infection according to fecal matter testing.
Judgement of the effect was made by the presence or absence of the worm gees in the fecal matter on the 21st day after the last administration and by examination according to autopsis as to whether the worm bodies were dead or alive in the liver.
The same as that in Test Example All, but eight (8) rats were employed by grouping them into groups each of two rats, each rat being infected with 5 metacercariae of liver fluke and confirmed to have fluke eggs on the 75th day after infection according to fecal matter testing.
The compounds provided for the tests were Compound Nos. Bl, B8 and B19.
The same as that in Test Example All, but six (6) rats were employed by grouping them into groups each of two rats, each rat being infected with 5 metacercariae of Fasciola hepatica and confirmed to have worm eggs on the 75th day after infection according to fecal matter testing.
The compounds provided for the tests were Compound Nos. C2 and C6.
The same as that in Test Example All, but the compounds provided for tests were Compound Nos. D14, D15 and D16.

[5] = test system: swine Oesophagostomum (Oesophagostomum dentatum); test: Test of anthelmintic effect against swine Oesophagostomum in naturally infected pigs, E.P.G. on 7th day (Test Examples A8, B8, C8, D8); assay type: in vivo
Method: Six pigs infected with swine Oesophagostomum (naturally infected pigs) were employed by grouping them into groups each of two pigs.
As a control, only gelatin capsules were administered orally to the two pigs.
(§1) Before administration and on the 7th day after administration, fecal matter testing was conducted to calculate the E.P.G., and the anthelmintic effect was judged by the changing of the E.P.G. to negative.

[6] = test system: canine filaria; Dirofilaria immitis; test: Test of anthelmintic effect against canine filaria in naturally infected dogs, subcutaneous injection, microfilaria in blood and adult filaria at autopsy (Test Examples A10, B10, C10, D10); assay type: in vivo; settings: for inhibition in vivo at 30 mg/kg / inhibition in vivo at 20 mg/kg: Dirofilaria immitis, sc, 240 h
Method: Eight dogs infected with canine filaria; Diro- filaria immitis (naturally infected dogs) were employed in groups each of two dogs.
The compounds provided for tests were Compound Nos. Al, A3 and A12. 20 mg of each was administered by subcutaneous injection per Kg of body weight to each of the two dogs as a suspension in 1% "Tween 80" solution once per day for three days. As control, 3 ml of the 1% "Tween 80" solution was subcutaneously injected into two dogs once per day for three days.
Before administration and on the 10th day after administration, 20 µl of earlobe blood of each dog was sampled and examined to determine the change in microfilaria (mf) according to the concentrated smear color method, and judgement on the effect on microfilaria (mf) was made. Judgement relating to adult filaria was made on the 10th day after the last administration by killing the dogs and carrying out autopsis.
30 mg of each compound was administered by subcutaneous injection per Kg of body weight to each of the two dogs as a suspension in 1% "Tween 80" solution once per day for three days. As control, 3 ml of the 1% "Tween 80" solution was subcutaneously injected into two dogs once per day for three days.
30 mg of each compound was administered by subcutaneous injection per Kg of body weight to each of two dogs as a suspension in 1% "Tween 80" solution once per day for three days. As control, 3 ml of the 1% "Tween 80" solution was subcutaneously injected to two dogs once per day for three days.
20 mg of each compound was administered by subcutaneous injection per kg of body weight once per day for three days to each of two dogs. These compounds were administered as a suspension in 1% "Tween 80" in the case of Compound No.Dl3 and as solutions dissolved in distilled water for injection in the case of Compounds Nos. D10 and D16, respectively. As control, 3 ml of the 1% "Tween 80" solution was subcutaneously injected into two dogs once per day for three days.

[7] = test system: canine strongyloides (Strongyloides stercoralis); test: Anthelmintic test against canine strongyloides in naturally infected dogs, E.P.G. on 7th day (Test Examples A4, B4, C4, D4); assay type: in vivo
Method: Three dogs infected with canine strongyloides (naturally infected dogs) were employed by grouping them into a group of two and a group of one.
As control, only a gelatin capsule was administered orally to the one dog.
as §1
(§2) As control, only gelatin capsules were administered orally to the one dog.
as §2

C=CCNOC [Compound D9]
inhibition in vivo at 15 mg/kg [1]: 50 to 79% | inhibition in vivo at 30 mg/kg [1]: 100% | Number of worms remaining in enteron ([2]; cat): 0 | anthelmintic effect [2]: marked anthelmintic effects

C=CCON(CC=C)C(=O)CC [Compound C2]
inhibition in vivo at 30 mg/kg [1]: 100% | inhibition in vivo at 50 mg/kg ([1]; 50 mg/Kg oral in gelatin capsule): 100% | Number of worm bodies remaining in enteron ([2]; cat, 50 mg/Kg x 5, oral in gelatin capsule): 0 | Worm egg detection on 10th day after administration ([2]; cat, 50 mg/Kg x 5, oral in gelatin capsule, once per day for 5 days): - | anthelmintic effect [2]: marked anthelmintic effects | inhibition in vivo at 25 ppm ([3]; 25 ppm in feed): 100% | inhibition in vivo at 50 ppm ([3]; 50 ppm in feed): 100% | Change of E.P.G. 21st day ([3]; 25 ppm in feed): 0 | Change of E.P.G. 21st day ([3]; 50 ppm in feed): 0 | Condition of fluke body ([4]; rat, 50 mg/Kg x 5): dead | Presence or absence of fluke egg in fecal matter On 21st day after the last administration ([4]; rat, 50 mg/Kg x 5): - | anthelmintic effect [4]: marked antihelmintic effect | Change of E.P.G. 7th day ([5]; pig, Oesophagostomum dentatum, 20 mg/Kg, one administration): 0 | Change of E.P.G. Before administration ([5]; pig, Oesophagostomum dentatum, before 20 mg/Kg (baseline)): 1,700 and 1,200 | anthelmintic effect ([5]; pigs, one administration of 20 mg/Kg): marked anthelmintic effect | inhibition in vivo at 30 mg/kg ([6]; dog, 30 mg/Kg x 3, subcutaneous injection, read-out: Effect on adult filaria: Percent of worms killed): 62% | inhibition in vivo at 30 mg/kg ([6]; dogs, administration of 30 mg/Kg repeated three times, given as about 50% or more, read-out: anthelmintic effect against adult filaria): ≥ 50% | Number of microfilaria/20 µl On 10th day after the last administration ([6]; dog, 30 mg/Kg x 3, subcutaneous injection, suspension in 1% Tween 80): 0 /20 µl | Effect on adult filaria: Number of worms killed/ Total parasite ([6]; dog, 30 mg/Kg x 3, subcutaneous injection, 30 mg/kg): 5/8 and 8/13 | anthelmintic effect against microfilaria (mf) ([6]; dogs, administration of 30 mg/Kg repeated three times): marked anthelmintic effect

C#CCNOC.Cl [Compound D16, N-propargyl-O-methylhydroxylamine hydrochloride]
inhibition in vivo at 15 mg/kg [1]: 100% | inhibition in vivo at 30 mg/kg [1]: 100% | Number of worms remaining in enteron ([2]; cat): 0 | anthelmintic effect [2]: marked anthelmintic effects | Change of E.P.G. 7th day ([7]; dog, Strongyloides stercoralis, 10 mg/Kg, one administration): 0 | Change of E.P.G. Before administration ([7]; dog, Strongyloides stercoralis, before 10 mg/Kg (baseline), hydrochloride): 2,300 and 1,800 | anthelmintic effect ([7]; dogs, one administration of 10 mg/Kg): marked anthelmintic effect | inhibition in vivo at 25 ppm ([3]; 25 ppm in feed): 100% | inhibition in vivo at 50 ppm ([3]; 50 ppm in feed): 100% | Condition of fluke bodies ([4]; rat, 50 mg/Kg x 5): dead | Presence or absence of fluke egg in fecal matter On 21st day after the last administration ([4]; rat, 50 mg/Kg x 5): - | anthelmintic effect [4]: marked anthelmintic effect | inhibition in vivo at 20 mg/kg ([6]; dog, 20 mg/Kg x 3, subcutaneous injection, read-out: Effect on adult filaria: Percent of worms killed): 55% | inhibition in vivo at 20 mg/kg ([6]; dogs, administration of 20 mg/Kg repeated three times, given as about 50% or more, read-out: anthelmintic effect against adult filaria): ≥ 50% | Number of microfilaria/20µl On 10th day after the administration ([6]; dog, 20 mg/Kg x 3, subcutaneous injection): 0 /20µl | Effect on adult filaria: Number of worms killed/ Total parasite ([6]; dog, 20 mg/Kg x 3, subcutaneous injection, hydrochloride, 20 mg/kg): 16/29 and 23/37 | Number of microfilaria/20µl Before administration ([6]; dog, before 20 mg/Kg x 3 subcutaneous injection (baseline), hydrochloride): 18 /20µl and 31 /20µl | anthelmintic effect against microfilaria (mf) ([6]; dogs, administration of 20 mg/Kg repeated three times): marked anthelmintic effect
